The results in this text go back to PMC12756740, “A GH42 β‑Galactosidase from the Human Isolate Bifidobacterium breve DSM 20213: Biochemical and Transgalactosylation Properties Reveal the Potential for Galacto-oligosaccharides Synthesis” (ACS Omega, 2025).

In this experiment the target is T1, Bbreβgal-III (Bifidobacterium breve, UniProt D4BMY8).
T1 construct: gene BIFBRE_03435; pET21a(+) NdeI/NotI, His-tagged, E. coli BL21 Star (DE3), IMAC purified
The experiment in a line: o-nitrophenol release at […] nm, nonlinear fit with substrate inhibition model. As to conditions: substrate inhibition constant; 50 mM sodium phosphate pH 6.5, 30 °C. Type of experiment: biochemical.

T1 sequence (D4BMY8 1-691): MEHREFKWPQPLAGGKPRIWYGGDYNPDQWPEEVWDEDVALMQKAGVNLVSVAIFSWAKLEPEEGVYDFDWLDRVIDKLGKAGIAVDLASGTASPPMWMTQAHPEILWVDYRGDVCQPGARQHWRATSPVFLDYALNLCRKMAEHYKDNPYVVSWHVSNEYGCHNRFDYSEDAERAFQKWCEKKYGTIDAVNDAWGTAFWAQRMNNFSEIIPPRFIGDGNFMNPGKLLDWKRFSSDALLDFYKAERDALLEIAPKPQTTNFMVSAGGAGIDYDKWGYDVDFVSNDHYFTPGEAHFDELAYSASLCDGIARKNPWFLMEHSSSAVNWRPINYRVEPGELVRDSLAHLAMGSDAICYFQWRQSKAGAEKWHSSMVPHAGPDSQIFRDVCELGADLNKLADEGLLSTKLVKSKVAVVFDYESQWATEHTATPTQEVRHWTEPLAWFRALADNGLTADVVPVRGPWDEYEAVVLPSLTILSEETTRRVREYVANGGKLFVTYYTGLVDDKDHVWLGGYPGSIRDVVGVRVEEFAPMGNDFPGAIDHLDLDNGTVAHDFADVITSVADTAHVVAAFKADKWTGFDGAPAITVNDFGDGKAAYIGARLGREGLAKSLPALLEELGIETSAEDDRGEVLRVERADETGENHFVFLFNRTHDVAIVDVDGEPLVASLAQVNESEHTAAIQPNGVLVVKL

Consider `O=[N+]([O-])c1ccccc1O[C@@H]1O[C@H](CO)[C@H](O)[C@H](O)[C@H]1O` [o-nitrophenyl-β-D-galactopyranoside], for which the “k i,S” value is given as 13.84 ± 1.57 mM.
